Results published in PubChem BioAssay (NCI).
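At the GI50, growth is halved. TGI: total growth inhibition.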

Columns and labels:
Experiment in all cases: NCI anticancer screen, dose series, 384-well format
[1] = tested on: 786-0 renal
[2] = tested on: A498 renal
[3] = tested on: A549 NSCLC
[4] = tested on: BT-549 breast
[5] = tested on: CAKI-1 renal
[6] = tested on: CCRF-CEM leukemia
[7] = tested on: COLO 205 colon
[8] = tested on: EKVX NSCLC
[9] = tested on: HCC-2998 colon
[10] = tested on: HCT-116 colon
[11] = tested on: HCT-15 colon
[12] = tested on: HL-60(TB) leukemia
[13] = tested on: HOP-92 NSCLC
[14] = tested on: HS 578T breast
[15] = tested on: HT29 colon
[16] = tested on: IGROV1 ovarian
[17] = tested on: KM12 colon
[18] = tested on: LOX IMVI melanoma
[19] = tested on: M14 melanoma
[20] = tested on: MCF7 breast
[21] = tested on: MDA-MB-231 breast
[22] = tested on: MDA-MB-435 melanoma
[23] = tested on: MDA-MB-468 breast
[24] = tested on: MOLT-4 leukemia
[25] = tested on: NCI-H226 lung
[26] = tested on: NCI-H23 lung
[27] = tested on: NCI-H322M lung
[28] = tested on: NCI-H460 NSCLC
[29] = tested on: NCI-H522 lung
[30] = tested on: NCI/ADR-RES ovarian
[31] = tested on: OVCAR-3 ovarian
[32] = tested on: OVCAR-4 ovarian
[33] = tested on: OVCAR-8 ovarian
[34] = tested on: PC-3 prostate
[35] = tested on: SF-268 CNS
[36] = tested on: SF-539 CNS
[37] = tested on: SK-MEL-28 melanoma
[38] = tested on: SK-MEL-5 melanoma
[39] = tested on: SK-OV-3 ovarian
[40] = tested on: SNB-19 CNS
[41] = tested on: SW-620 colon
[42] = tested on: T-47D breast
[43] = tested on: TK-10 renal
[44] = tested on: U251 glioblastoma
[45] = tested on: UACC-257 melanoma
[46] = tested on: UACC-62 melanoma
[47] = tested on: UO-31 renal

CS(=O)(=O)c1ccc(C(=O)Nc2ccc(Cl)c(-c3ccccn3)c2)c(Cl)c1
GI50 [1]: 22.8 µM | TGI [1]: 58.3 µM | GI50 [2]: 31.9 µM | TGI [2]: > 71.7 µM | GI50 [3]: 41.1 µM | TGI [3]: > 100 µM | GI50 [4]: 25.1 µM | TGI [4]: 76.9 µM | GI50 [5]: 36.6 µM | TGI [5]: > 83.8 µM | GI50 [6]: 19.9 µM | TGI [6]: 50 µM | GI50 [7]: 40.3 µM | TGI [7]: > 100 µM | GI50 [8]: 48.3 µM | TGI [8]: > 90.5 µM | GI50 [9]: 24.6 µM | TGI [9]: 56.8 µM | GI50 [10]: 58.3 µM | TGI [10]: > 100 µM | GI50 [11]: 26.2 µM | TGI [11]: > 70.8 µM | GI50 [12]: 19.6 µM | TGI [12]: 49.1 µM | GI50 [13]: 31.2 µM | TGI [13]: 79 µM | GI50 [14]: 27.6 µM | TGI [14]: > 84 µM | GI50 [15]: 18.3 µM | TGI [15]: 36.7 µM | GI50 [16]: 56.6 µM | TGI [16]: > 100 µM | GI50 [17]: 17.9 µM | TGI [17]: > 56.7 µM | GI50 [18]: 47.2 µM | TGI [18]: > 100 µM | GI50 [19]: 47.5 µM | TGI [19]: > 100 µM | GI50 [20]: 35.3 µM | TGI [20]: > 82.8 µM | GI50 [21]: > 65.9 µM | TGI [21]: > 100 µM | GI50 [22]: > 62 µM | TGI [22]: > 100 µM | GI50 [23]: 22.2 µM | TGI [23]: 46.7 µM | GI50 [24]: 21.8 µM | TGI [24]: 46.3 µM | GI50 [25]: 22.9 µM | TGI [25]: 64.3 µM | GI50 [26]: > 61.2 µM | TGI [26]: > 100 µM | GI50 [27]: 67.2 µM | TGI [27]: > 100 µM | GI50 [28]: 30.8 µM | TGI [28]: > 70.3 µM | GI50 [29]: 46 µM | TGI [29]: > 100 µM | GI50 [30]: 25.3 µM | TGI [30]: 71.7 µM | GI50 [31]: 35.9 µM | TGI [31]: > 83 µM | GI50 [32]: 32.6 µM | TGI [32]: > 84.5 µM | GI50 [33]: 45.7 µM | TGI [33]: 99.4 µM | GI50 [34]: 55 µM | TGI [34]: > 100 µM | GI50 [35]: 45 µM | TGI [35]: > 100 µM | GI50 [36]: 49.1 µM | TGI [36]: > 100 µM | GI50 [37]: > 53.4 µM | TGI [37]: > 100 µM | GI50 [38]: 10.8 µM | TGI [38]: > 29.3 µM | GI50 [39]: > 72.5 µM | TGI [39]: > 100 µM | GI50 [40]: > 64.8 µM | TGI [40]: > 100 µM | GI50 [41]: > 64 µM | TGI [41]: > 100 µM | GI50 [42]: 21.4 µM | TGI [42]: 59.7 µM | GI50 [43]: > 52.9 µM | TGI [43]: > 100 µM | GI50 [44]: 49.5 µM | TGI [44]: > 100 µM | GI50 [45]: 49.6 µM | TGI [45]: > 89.7 µM | GI50 [46]: 44.4 µM | TGI [46]: > 79.3 µM | GI50 [47]: 35.4 µM | TGI [47]: > 80.3 µM
